Data set [1] is described as follows: Bulk / drug substance stability (HPLC). It is filed as physicochemical. The method, then: At four weeks, one or two degradation peaks became detectable at 40° C. and 50° C., but the level of each impurity peak was still less than 0.02%.
The nature of the next data set: Oral availability. Conditions: in vivo.
For the next data set, the target named is VLA-4 (Homo sapiens, UniProt P05556+P13612). Nature of the data set: CS1 Cell Adhesion Assay, Jurkat cells to CS1/BSA conjugate. It is filed as cell-based. Set-up: endogenous in cells; host or cells: Jurkat (human T cell line). The method, then: The peptide NH2-cysteine-tyrosine-CS-1 was synthesized and coupled to BSA-SMCC (SMCC is a heterobifunctional crosslinker which reacts with free amino groups on BSA and the sole cysteine of the synthetic peptide) at a CS1/BSA ratio of 10:1. Wells were coated overnight with 100 μL of conjugate diluted to a final concentration of 1 ug/ml. The next day the wells were blocked with BSA in PBS for one hour and then washed three times.
Sequence of VLA-4 (P13612 34-1032): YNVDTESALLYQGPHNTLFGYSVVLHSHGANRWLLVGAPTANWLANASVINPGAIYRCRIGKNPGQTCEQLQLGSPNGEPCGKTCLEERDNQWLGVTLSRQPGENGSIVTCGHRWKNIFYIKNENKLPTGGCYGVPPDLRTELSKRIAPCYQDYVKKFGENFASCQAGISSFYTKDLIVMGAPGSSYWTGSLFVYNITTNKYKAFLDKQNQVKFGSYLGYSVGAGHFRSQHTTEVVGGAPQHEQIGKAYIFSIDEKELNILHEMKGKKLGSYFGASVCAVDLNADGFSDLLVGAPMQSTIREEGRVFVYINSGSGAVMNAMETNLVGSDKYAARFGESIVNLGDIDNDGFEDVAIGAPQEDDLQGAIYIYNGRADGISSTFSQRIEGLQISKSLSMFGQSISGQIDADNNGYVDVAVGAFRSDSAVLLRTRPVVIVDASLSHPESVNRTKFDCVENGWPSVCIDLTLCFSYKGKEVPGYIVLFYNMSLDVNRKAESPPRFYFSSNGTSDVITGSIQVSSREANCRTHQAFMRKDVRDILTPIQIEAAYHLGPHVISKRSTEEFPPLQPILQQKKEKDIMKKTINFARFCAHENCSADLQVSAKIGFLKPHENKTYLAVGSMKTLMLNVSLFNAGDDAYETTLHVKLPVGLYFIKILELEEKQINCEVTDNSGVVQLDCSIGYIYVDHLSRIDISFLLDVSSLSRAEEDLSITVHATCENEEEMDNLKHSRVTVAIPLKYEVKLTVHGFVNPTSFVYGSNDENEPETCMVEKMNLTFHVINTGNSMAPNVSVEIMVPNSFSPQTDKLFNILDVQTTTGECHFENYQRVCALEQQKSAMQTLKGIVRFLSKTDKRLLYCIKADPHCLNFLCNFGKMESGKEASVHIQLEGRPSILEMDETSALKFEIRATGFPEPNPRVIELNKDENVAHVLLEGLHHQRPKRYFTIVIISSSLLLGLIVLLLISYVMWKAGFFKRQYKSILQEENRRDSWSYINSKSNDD
Sequence of VLA-4 (P05556 21-798): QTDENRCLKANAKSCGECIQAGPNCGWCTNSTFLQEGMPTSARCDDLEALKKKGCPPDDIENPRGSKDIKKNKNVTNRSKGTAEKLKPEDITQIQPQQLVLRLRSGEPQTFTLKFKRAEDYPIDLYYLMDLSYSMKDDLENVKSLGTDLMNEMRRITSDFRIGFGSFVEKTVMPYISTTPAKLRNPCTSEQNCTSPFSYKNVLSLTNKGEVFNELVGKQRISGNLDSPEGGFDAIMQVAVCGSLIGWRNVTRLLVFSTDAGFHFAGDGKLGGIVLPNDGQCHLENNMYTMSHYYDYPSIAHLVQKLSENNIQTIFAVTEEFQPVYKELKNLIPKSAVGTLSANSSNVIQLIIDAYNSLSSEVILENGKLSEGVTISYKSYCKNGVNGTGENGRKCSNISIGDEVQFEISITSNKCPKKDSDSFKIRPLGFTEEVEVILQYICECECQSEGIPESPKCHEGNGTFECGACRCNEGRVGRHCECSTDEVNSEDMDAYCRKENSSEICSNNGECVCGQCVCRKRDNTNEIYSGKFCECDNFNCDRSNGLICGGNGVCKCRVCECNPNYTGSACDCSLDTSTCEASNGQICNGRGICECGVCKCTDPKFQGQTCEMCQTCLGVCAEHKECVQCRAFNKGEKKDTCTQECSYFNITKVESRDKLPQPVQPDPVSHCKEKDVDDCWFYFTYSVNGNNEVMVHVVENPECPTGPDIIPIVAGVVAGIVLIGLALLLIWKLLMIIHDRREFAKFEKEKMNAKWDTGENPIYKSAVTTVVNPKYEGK
The human T cell line, Jurkat, was labeled with 2 μM BCECF-AM, a fluorescent dye (2′, 7′, bis-(2-carboxyethyl)-5 and -6) carboxy fluorescein acetoxymethyl ester (Molecular Probes Inc., Eugene, Oregon; catalog #B-1150) that is internalized and deesterified thus trapping the dye within live cells. Jurkat cells (1×10^5 cells/well) in buffer containing 1 mM Mn^+2 were added to the coated plates in the presence of three-fold serial dilutions of inhibitor. Each concentration was assayed in duplicate. After 30 minutes at room temperature, the plates were inverted and washed three times or until no cells were adherent to control wells coated with BSA alone. CS1-adherent cells were quantitated in a Cytofluor fluorescent platereader using an excitation wavelength of 485 nm and an emission wavelength of 530 nm.
Cells adhered to CS1/BSA in the absence of compound served as the 0% inhibition control whereas cells adhering to BSA alone served as the 100% inhibition control. IC50's were calculated using Deltagraph software, version 5.

The nature of the next data set: Solubility. The data set is classed as physicochemical.

Values after ≈ are worked out from the molar mass of the structure shown.

`Cc1ccccc1NC(=O)Nc1ccc(CC(=O)N2CCC[C@H]2C(=O)N[C@H](C)CC(=O)O)cc1` [oMePUPA-V]: the “Bulk stability (40° C., 75% RH), time stable” value in data set [1] was “stable >4 wk”. In “Oral availability”, this compound registered an Oral availability below 1%. In addition, at VLA-4 (1 mM MnCl2, read-out: IC50 ± SD, Jurkat cell CS1 adhesion), the IC50 was 22 nM. For the same compound, the “blocking of Jurkat cell adhesion to CS1 (in words)” value at VLA-4 (in the presence of Mn+2) is “completely block”. In addition, the “solubility in DMSO” value in the data set “Solubility” (DMSO) was “soluble”. For the same compound, the solubility in the data set “Solubility” (aqueous medium) is 120 µg/mL (≈ 257 µM).
